biological target: T1, recombinant HIV-1 protease (Human immunodeficiency virus type 1 group M subtype B, UniProt P04585); assay: Measurement of HIV protease inhibitory activity; assay type: biochemical; details: 50 nM compound; 10.5 nM HIV-1 protease, pH 6.5, 37° C., 60 minutes
T1 construct: 10.5 nM HIV-1 protease
Description: Measurement of HIV protease inhibitory activity
The protease inhibitory activity was measured according to the method reported by T. Mimoto et al., J. Med. Chem., 42, 1789-1802 (1999) by using a recombinant HIV-1 protease (see Biochemistry, 250, 9, 264 (1990)) and a synthesized peptide substrate (H-Ser-Gln-Asn-Tyr-Pro-Ile-Val-OH). Specifically, reaction solutions (15 μl each) containing any one of the compounds synthesized in the above Examples 1-15 and Reference Examples 1-4, an inhibitor in which a known anti-AIDS agent (nelfinavir) is dissolved in DMSO in different concentrations, 10.5 nM HIV-1 protease, 20 mM synthesized peptide substrate, and 100 mM MES buffer solution (pH 6.5) were incubated at 37° C. for 60 minutes. Peptide fragments produced by cleaving the Tyr-Pro bonds in the synthesized peptide substrate was quantitatively measured by reverse phase HPLC.

**Q.** For `Cc1ccc(C[C@H](NC(=O)c2cccc(O)c2C)[C@H](O)C(=O)N2CSC(C)(C)[C@H]2C(=O)NCc2ccccc2C)cc1` [Ex. 9, (R)-N-(2-methylbenzyl)-3-[(2S,3S)-2-hydroxy-3-(3-hydroxy-2-methylbenzoyl)amino-4-(4-metylphenyl)butanoyl]-5,5-dimethyl-1,3-thiazolidine-4-carboxamide], which “HIV protease inhibition rate (%) at 50 nM” value is on record?
**A.** Its value is 97%.

same assay, conditions: 50 nM compound; 10.5 nM HIV-1 protease, pH 6.5, 37° C., 60 minutes; read-out: HIV protease inhibition rate (%) at 50 nM

**Q.** With `CCCOc1ccc(C[C@H](NC(=O)c2cccc(O)c2C)[C@H](O)C(=O)N2CSC(C)(C)[C@H]2C(=O)NCc2ccccc2C)cc1` [Ex. 7, (R)-N-(2-methylbenzyl)-3-[(2S,3S)-2-hydroxy-3-(3-hydroxy-2-methylbenzoyl)amino-4-(4-n-propoxyphenyl)butanoyl]-5,5-dimethyl-1,3-thiazolidine-4-carboxamide] as the compound, how does the inhibition at 0.05 µM read?
**A.** Its inhibition at 0.05 µM is 97%.

**Q.** For `COc1ccc(C[C@H](NC(=O)c2ccc(F)c(O)c2C)[C@H](O)C(=O)N2CSC(C)(C)[C@H]2C(=O)NCc2ccccc2C)cc1` [Ex. 3, (R)-N-(2-methylbenzyl)-3-[(2S,3S)-2-hydroxy-3-(4-fluoro-3-hydroxy-2-methyl-benzoyl)amino-4-(4-methoxyphenyl)butanoyl]5,5-dimethyl-1,3-thiazolidine-4-carboxamide], which inhibition at 0.05 µM is on record?
**A.** The inhibition at 0.05 µM was 93%.

**Q.** For `Cc1cccc(C)c1CNC(=O)[C@H]1N(C(=O)[C@@H](O)[C@H](Cc2ccc3c(c2)OCO3)NC(=O)c2cccc(N)c2Cl)CSC1(C)C` [Ex. 15, (R)-N-(2,6-dimethylbenzyl)-3-[(2S,3S)-2-hydroxy-3-(3-amino-2-chlorobenzoyl)amino-4-(3,4-methylenedioxyphenyl)butanoyl]-5,5-dimethyl-1,3-thiazolidine-4-carboxamide], which inhibition at 0.05 µM is on record?
**A.** Its inhibition at 0.05 µM is 96%.

**Q.** With `COc1ccc(C[C@H](NC(=O)c2cccc(N)c2Cl)[C@H](O)C(=O)N2CSC(C)(C)[C@H]2C(=O)NCc2ccccc2C)cc1` [Ex. 4, (R)-N-(2-methylbenzyl)-3-[(2S,3S)-2-hydroxy-3-(3-amino-2-chlorobenzoyl)amino-4-(4-methoxyphenyl)butanoyl]-5,5-dimethyl-1,3-thiazolidine-4-carboxamide] as the compound, how does the inhibition at 0.05 µM read?
**A.** Its inhibition at 0.05 µM is 91%.

**Q.** With `COc1ccc(C[C@H](NC(=O)c2cccc(O)c2C)[C@H](O)C(=O)N2CSC(C)(C)[C@H]2C(=O)NCc2ccccc2C)cc1` [Ex. 1, (R)-N-(2-methylbenzyl)-3-[(2S,3S)-2-hydroxy-3-(3-hydroxy-2-methylbenzoyl)amino-4-(4-methoxyphenyl)butanoyl]-5,5-dimethyl-1,3-thiazolidine-4-carboxamide] as the compound, how does the inhibition at 0.05 µM read?
**A.** Its inhibition at 0.05 µM is 95%.

**Q.** For `Cc1ccccc1CNC(=O)[C@H]1N(C(=O)[C@@H](O)[C@H](Cc2ccc3c(c2)OCO3)NC(=O)c2cccc(O)c2C)CSC1(C)C` [Ex. 6, (R)-N-(2-methylbenzyl)-3-[(2S,3S)-2-hydroxy-3-(3-hydroxy-2-methylbenzoyl)amino-4-(3,4-methylenedioxyphenyl)butanoyl]-5,5-dimethyl-1,3-thiazolidine-4-carboxamide], which inhibition at 0.05 µM is on record?
**A.** The inhibition at 0.05 µM was 97%.

**Q.** For `Cc1c(O)cccc1C(=O)N[C@@H](CSc1ccccc1)[C@H](O)CN1C[C@H]2CCCC[C@H]2C[C@H]1C(=O)NC(C)(C)C` [Re. 5, nelfinavir, reference compound], which inhibition at 0.05 µM is on record?
**A.** Its inhibition at 0.05 µM is 93%.

**Q.** With `Cc1ccccc1CNC(=O)[C@H]1N(C(=O)[C@@H](O)[C@H](Cc2ccc(Cl)cc2)NC(=O)c2cccc(O)c2C)CSC1(C)C` [Ex. 11, (R)-N-(2-methylbenzyl)-3-[(2S,3S)-2-hydroxy-3-(3-hydroxy-2-methylbenzoyl)amino-4-(4-chlorophenyl)butanoyl]-5,5-dimethyl-1,3-thiazolidine-4-carboxamide] as the compound, how does the inhibition at 0.05 µM read?
**A.** The inhibition at 0.05 µM was 97%.

**Q.** Which inhibition at 0.05 µM does the source give for `Cc1ccccc1CNC(=O)[C@H]1N(C(=O)[C@@H](O)[C@H](Cc2ccc(OC(C)C)cc2)NC(=O)c2cccc(O)c2C)CSC1(C)C` [Ex. 8, (R)-N-(2-methylbenzyl)-3-[(2S,3S)-2-hydroxy-3-(3-hydroxy-2-methylbenzoyl)amino-4-(4-isopropoxyphenyl)butanoyl]-5,5-dimethyl-1,3-thiazolidine-4-carboxamide] here?
**A.** Its inhibition at 0.05 µM is 96%.

**Q.** For `COc1ccc(C[C@H](NC(=O)c2cccc(N)c2Cl)[C@H](O)C(=O)N2CSC(C)(C)[C@H]2C(=O)NCc2c(C)cccc2C)cc1` [Ex. 14, (R)-N-(2,6-dimethylbenzyl)-3-[(2S,3S)-2-hydroxy-3-(3-amino-2-chlorobenzoyl)amino-4-(4-methoxyphenyl)butanoyl]-5,5-dimethyl-1,3-thiazolidine-4-carboxamide], which inhibition at 0.05 µM is on record?
**A.** Its inhibition at 0.05 µM is 92%.

**Q.** For `Cc1ccccc1CNC(=O)[C@H]1N(C(=O)[C@@H](O)[C@H](Cc2ccc(C(C)C)cc2)NC(=O)c2cccc(O)c2C)CSC1(C)C` [Ex. 10, (R)-N-(2-methylbenzyl)-3-[(2S,3S)-2-hydroxy-3-(3-hydroxy-2-methylbenzoyl)amino-4-(4-isopropylphenyl)butanoyl]-5,5-dimethyl-1,3-thiazolidine-4-carboxamide], which inhibition at 0.05 µM is on record?
**A.** Its inhibition at 0.05 µM is 96%.

**Q.** With `Cc1ccccc1CNC(=O)[C@H]1N(C(=O)[C@@H](O)[C@H](Cc2ccc3c(c2)OCO3)NC(=O)c2cccc(N)c2Cl)CSC1(C)C` [Ex. 13, (R)-N-(2-methylbenzyl)-3-[(2S,3S)-2-hydroxy-3-(3-amino-2-chlorobenzoyl)amino-4-(3,4-methylenedioxyphenyl)butanoyl]-5,5-dimethyl-1,3-thiazolidine-4-carboxamide] as the compound, how does the inhibition at 0.05 µM read?
**A.** Its inhibition at 0.05 µM is 95%.

**Q.** With `COc1ccc(C[C@H](NC(=O)c2cccc(O)c2C)[C@H](O)C(=O)N2CSC(C)(C)[C@H]2C(=O)NCc2cc(F)ccc2C)cc1` [Ex. 2, (R)-N-(5-fluoro-2-methylbenzyl)-3-[(2S,3S)-2-hydroxy-3-(3-hydroxy-2-methyl-benzoyl)amino-4-(4-methoxyphenyl)butanoyl]-5,5-dimethyl-1,3-thiazolidine-4-carboxamide] as the compound, how does the inhibition at 0.05 µM read?
**A.** Its inhibition at 0.05 µM is 97%.

**Q.** For `CCOc1ccc(C[C@H](NC(=O)c2cccc(O)c2C)[C@H](O)C(=O)N2CSC(C)(C)[C@H]2C(=O)NCc2ccccc2C)cc1` [Ex. 5, (R)-N-(2-methylbenzyl)-3-[(2S,3S)-2-hydroxy-3-(3-hydroxy-2-methylbenzoyl)amino-4-(4-ethoxyphenyl)butanoyl]-5,5-dimethyl-1,3-thiazolidine-4-carboxamide], which inhibition at 0.05 µM is on record?
**A.** Its inhibition at 0.05 µM is 95%.

**Q.** For `CCOc1ccc(C[C@H](NC(=O)c2cccc(N)c2Cl)[C@H](O)C(=O)N2CSC(C)(C)[C@H]2C(=O)NCc2ccccc2C)cc1` [Ex. 12, (R)-N-(2-methylbenzyl)-3-[(2S,3S)-2-hydroxy-3-(3-amino-2-chlorobenzoyl)amino-4-(4-ethoxyphenyl)butanoyl]-5,5-dimethyl-1,3-thiazolidine-4-carboxamide], which inhibition at 0.05 µM is on record?
**A.** The inhibition at 0.05 µM was 89%.

tested on: HIV virus (HIV-1 IIIB strain); assay: Measurement of anti-HIV activity (cytopathic effect, XTT) in CEM-SS cells; assay type: cell-based; details: 6 days, in the presence of 50% human plasma
Description: Measurement of anti-HIV activity
The anti-HIV activity of the compounds synthesized Examples 1-15 and Reference Examples 1-4 was measured according to the method reported by 0. S. Weislow et al. (J. Natl. Cancer Inst. 81, 577-586, 1989) using CEM-SS cells as host cells and HIV virus (HIV-1 IIIB strain)(see T. Mimoto et al., J. Med. Chem., 42, 1789-1802, 1999, etc.).
Specifically, the compounds synthesized Examples 1-15 and […] in various concentrations were added to a culture medium on 96-well microtiter plates. Human blood serum was added to a final concentration of 50%, then HIV infected CEM-SS cells was added, followed by incubation in a CO2 atmosphere at 37° C. for 6 days. The cytopathic effect induced by HIV-1 IIIB was measured by tetrazolium dye XTT dyeing method to evaluate the 50% inhibitory concentration (IC50).

**Q.** For `Cc1ccc(C[C@H](NC(=O)c2cccc(O)c2C)[C@H](O)C(=O)N2CSC(C)(C)[C@H]2C(=O)NCc2ccccc2C)cc1` [Ex. 9, (R)-N-(2-methylbenzyl)-3-[(2S,3S)-2-hydroxy-3-(3-hydroxy-2-methylbenzoyl)amino-4-(4-metylphenyl)butanoyl]-5,5-dimethyl-1,3-thiazolidine-4-carboxamide], which “Anti-HIV IC50” value is on record?
**A.** Its value is 0.02 µg/mL.

tested on: human plasma; assay: Protein binding to human plasma (ultrafiltration, unbound ratio); assay type: in vitro ADME; details: concentration 1 μM; from regression line of FIG. 1; 18 hours at 37° C.
Description: Measurement of protein binding rate […] Freezed human plasma (HFFPP100) was used after thawing. Powder of human alpha 1-acid glycoprotein (supplied by SIGMA Co., hereinafter abbreviated to AAG) was dissolved in a phosphate buffer solution (PBS, pH 7.0) to a concentration of 1 mg/ml. […] Quantitative determination of unbound drug concentration […] All amount of the solution was transferred to Micropartition Devices (Centrifree®, Millipore Co.) and filtered by centrifugation at 1500 ×g for 20 minutes (using TOMY CX-210 high-speed cooling centrifugal machine). 200 μl of the filtrate was directly subjected to HPLC (Type: HITACHI D-7000, column: COSMOSIL (4.6* 250 mm, manufactured by Nacalai Tesque Co., Ltd.). The HPLC analysis was carried out by using a 59:41 (v/v) water-acetonitrile mixture containing 0.1% trifluoroacetic acid (TFA) as a mobile phase and measuring absorbance at 210 nm. The quantitative determination of unbound drug concentration was carried out based on the absolute calibration curve method using a calibration line obtained from the analysis of a standard sample which contains the drug at a known concentration. Analysis of protein binding properties A commonly accepted method (see Y. Odagiri et al., Protein Binding Experimental Method (1991), Hirokawa Publishing Co., Ltd.) was employed for the analysis of protein binding properties. […]

**Q.** For `COc1ccc(C[C@H](NC(=O)c2cccc(O)c2C)[C@H](O)C(=O)N2CSC(C)(C)[C@H]2C(=O)NCc2ccccc2C)cc1` [Ex. 1, (R)-N-(2-methylbenzyl)-3-[(2S,3S)-2-hydroxy-3-(3-hydroxy-2-methylbenzoyl)amino-4-(4-methoxyphenyl)butanoyl]-5,5-dimethyl-1,3-thiazolidine-4-carboxamide], which “ratio of unbound drug (human plasma)” value is on record?
**A.** Its value is 0.029.

tested on: not listed separately; assay: Plasma concentration after intraduodenal administration to rats; assay type: in vivo; details: Sprague-Dawley, other: into the duodenum, rat, 10 mg/kg into the duodenum, 30 minutes after the administration
Description: A pharmacological experiment of the compound of the present invention was carried out using Sprague-Dawley rats (300-400 g). 10 mg/kg of a 50% polyethylene glycol (PEG) solution (1 ml/kg) was administered into the duodenum under anesthesia and blood was collected over time. After the addition of a solvent, the collected blood plasma sample was shaken and centrifuged. The organic layer was concentrated and dissolved in 50% methanol. The sample thus obtained was analyzed by HPLC for the determination of concentration of the compound in plasma. The HPLC analysis was carried out using Capecellpak C18 (4.6×150 mm, Shiseido LTD) as a column and a mixed solvent of 0.1% TFA aqueous solution and acetonitrile as an eluent (see T. Mimoto et al. J. Med. Chem., 42, 1789-1802, 1999).
The compound of the present invention was confirmed to have pharmacological characteristics expected as an in vivo effect of the compound. For instance, when the compound of Example 1 of the present invention is administered to a rat at a dose of 10 mg/kg into the duodenum, the compound is detected in plasma of the rat at a concentration of 0.42 μg/ml 30 minutes after the administration.

**Q.** With `COc1ccc(C[C@H](NC(=O)c2cccc(O)c2C)[C@H](O)C(=O)N2CSC(C)(C)[C@H]2C(=O)NCc2ccccc2C)cc1` [Ex. 1, (R)-N-(2-methylbenzyl)-3-[(2S,3S)-2-hydroxy-3-(3-hydroxy-2-methylbenzoyl)amino-4-(4-methoxyphenyl)butanoyl]-5,5-dimethyl-1,3-thiazolidine-4-carboxamide] as the compound, how does the concentration at 30 min read?
**A.** The concentration at 30 min was 420 ng/mL.

Reference: patent US6673772B2, “Dipeptide compounds and their use as antiviral agents” (Sumitomo Pharmaceuticals Company Limited, priority 2000, dated 2004)
